Assay results: US20200016163A1, “TREATMENT OF DEMENTIA WITH CANNABINOID AGONISTS” (priority 2017, published 2020)
“Also recorded” adds a separate entry of the source.

Assays:
[1] = test system: lesion of cholinergic cells of nucleus basalis magnocellularis in rats (model of irreversible Alzheimer-type dementia); assay: Barnes maze (spatial memory) in rats with 192 IgG-saporin lesion of the nucleus basalis magnocellularis, 1 round of training sessions; type: in vivo, Sprague Dawley rats; conditions: 5 administrations
Description: The animal model used is the lesion of cholinergic cells of nucleus basalis magnocellularis in rats to cause memory loss that is sustained over time. It is a recognized model of irreversible-type dementia, specifically of irreversible Alzheimer-type dementia.
(§1) More specifically, a bilateral lesion was generated in the nucleus basalis magnocellularis in the brain of male Sprague Dawley rats (male 150-200 g) by means of stereotaxic coordinates (bregma −1.5 mm anteroposterior, ±3 mm laterodorsal and −8 mm ventral from the surface of the cranium) by injecting toxin 192 IgG-saporin (Merck-Millipore. Ref:MAB390) (SAP, n=30) (135 ng/μl/hemisphere; 0.25 μl/min) dissolved in artificial cerebrospinal fluid (CSF, n=28) (148 mM NaCl, 2.7 mM KCl, […], 1.2 mM CaCl2.2H2O; pH 7.4 adjusted with 1 mM K2HPO4) and the same method was carried out for the lesion control group but in this case only CSF (1 μl/hemisphere) was injected. Finally, as control of the latter, another group of animals was used which only received the injection of the needle and no compound was administered (SHAM, n=7). To stabilize the lesion process, the animals were not handled for one week. […] The compound is dissolved in DMSO:Cremophor:saline according to ratio [1:1:18].
The test used to evaluate the cognitive deficit of these models was the Barnes maze, which measures spatial memory. It is a circular maze with 20 holes on the periphery and only one of them has an escape box. When the animal finds this box, it is returned to its cage. This method is performed four times a day for four days (16 training sessions). On the fifth day, the hole leading to the escape box is covered and the animal explores the maze for three minutes for the purpose of finding this hole (test). The time in the target quadrant will be evaluated in the test. This parameter indicates if the animal accurately remembers where the escape hole is located because it will spend more time in the quadrant containing said hole (target quadrant). This parameter was analyzed by means of SMART 3.0 video-tracking software. Compared to other types of behavioral tests that evaluate memory in rodents, this test has the advantage that there is no aversive stimulus with which effects relating to fear and anxiety may interfere, which thereby prevents confusing anxiolytic effects with cognitive enhancing effects.

[2] = test system: lesion of cholinergic cells of nucleus basalis magnocellularis in rats (model of irreversible Alzheimer-type dementia); assay: Barnes maze in 192 IgG-saporin lesioned rats, 2 rounds of training sessions (second round with treatment); type: in vivo, Sprague Dawley rats; conditions: SAP* rats with previously shown deficit (SAP*+WIN); new escape hole, 0.5 mg/kg i.p. on 4 training days and test day from day 18
Method: as §1
The test used to evaluate the cognitive deficit of these models was the Barnes maze, which measures spatial memory. It is a circular maze with 20 holes on the periphery and only one of them has an escape box. When the animal finds this box, it is returned to its cage. […] The time in the target quadrant will be evaluated in the test. […] This parameter was analyzed by means of SMART 3.0 video-tracking software. […]

| SMILES | effect of CB1 antagonist co-administration on the WIN55,212-2 effect, time in the target quadrant, Barnes maze test ([1]; SAP-lesioned rats (SAP+W+SR), SR141716A 0.5 mg/kg together with WIN55,212-2 0.5 mg/kg i.p.) | effect on memory of a control rat (time in the target quadrant), Barnes maze test ([1]; CSF control rats (CSF+W3), 3 mg/kg i.p.) | time in the target quadrant, Barnes maze test, non-lesioned control group ([1]; CSF control rats (CSF+WIN), 0.5 mg/kg i.p. once daily) | time in the target quadrant, Barnes maze test, high dose ([1]; SAP-lesioned rats (SAP+W3), 3 mg/kg i.p.) | time in the target quadrant (memory deficit), Barnes maze test ([1]; SAP-lesioned rats (SAP+WIN), 0.5 mg/kg i.p. once daily, one hour before training/test, 0.5 mg/kg) | ability to remember the escape hole (time in the target quadrant), Barnes maze test [2] |
| --- | --- | --- | --- | --- | --- | --- |
| Cc1c(C(=O)NN2CCCCC2)nn(-c2ccc(Cl)cc2Cl)c1-c1ccc(Cl)cc1 [SR141716A] | reversing the effect produced by treatment with WIN55,212-2 alone | – | – | – | – | – |
| Cc1c(C(=O)c2cccc3ccccc23)c2cccc3c2n1[C@H](CN1CCOCC1)CO3 [WIN55,212-2] | – | detrimental for memory | no effect | behave like a control rat | had no memory deficits; also recorded: spends the most amount of time in the target quadrant | capable of remembering it |
